Earlier results as cited in US20250235469A1, “Synergistic combinations of Finasteride, Dutasteride, and Minoxidil” (priority 2024, published 2025).

Legend:
DHT levels = conditions: 5 mg daily dose; 2004 study
[1] = molecular target: T1, 5α-reductase type 1 isoenzyme (Homo sapiens, UniProt P18405)
T1 sequence (P18405 1-259): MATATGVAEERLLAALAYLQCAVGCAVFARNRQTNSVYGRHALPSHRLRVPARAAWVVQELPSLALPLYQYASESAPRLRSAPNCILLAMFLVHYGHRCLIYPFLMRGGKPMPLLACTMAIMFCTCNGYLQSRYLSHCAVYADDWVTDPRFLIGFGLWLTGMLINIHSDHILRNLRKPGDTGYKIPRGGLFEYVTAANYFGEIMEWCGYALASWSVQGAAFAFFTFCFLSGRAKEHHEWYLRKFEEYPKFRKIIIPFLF

[2] = molecular target: T2, 5α-reductase type 2 isoenzyme (Homo sapiens, UniProt P31213)
T2 sequence (P31213 1-254): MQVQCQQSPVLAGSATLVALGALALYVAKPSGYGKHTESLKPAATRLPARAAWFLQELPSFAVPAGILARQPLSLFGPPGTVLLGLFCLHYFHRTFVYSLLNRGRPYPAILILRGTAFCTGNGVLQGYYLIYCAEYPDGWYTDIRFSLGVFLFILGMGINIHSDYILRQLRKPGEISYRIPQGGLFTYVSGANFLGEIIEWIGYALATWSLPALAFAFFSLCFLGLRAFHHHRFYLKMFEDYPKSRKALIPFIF

[3] = in vivo

Row | SMILES | reduced DHT levels (DHT levels) | inhibition of type 1 isoenzyme of 5α-reductase [1] | inhibition of type 2 isoenzyme of 5α-reductase [2] | increase in hair count (hair count; men, 2006 study, dutasteride compared to finasteride) | half-life [3] | hair count and hair loss in users (hair count; studies of finasteride users)
1 | C[C@]12C=CC(=O)N[C@@H]1CC[C@@H]1[C@@H]2CC[C@]2(C)[C@@H](C(=O)Nc3cc(C(F)(F)F)ccc3C(F)(F)F)CC[C@@H]12 [dutasteride, N-[2,5-bis(trifluoromethyl)phenyl]-3-oxo-4-aza-5α-androst-1-ene-17β-carboxamide] | 98.4% | inhibits both the types 1 and 2 isoenzymes | inhibits both the types 1 and 2 isoenzymes | higher increase in hair count | several months | 
2 | CC(C)(C)NC(=O)[C@H]1CC[C@H]2[C@@H]3CC[C@H]4NC(=O)C=C[C@]4(C)[C@H]3CC[C@]12C [finasteride, 17β-(N-tert-butylcarbamoyl)-4-aza-5α-androst-1-en-3-one] | 70.8% |  | only inhibits the type 2 isoenzyme |  | only a few hours | both an increase in hair count and a reduction in hair loss
